Experimental data taken from US8378112B2, “Glycyrrhetinic acid derivative and use thereof” (INI Corporation, priority 2008, dated 2013).

Columns and labels:
C57BL/6J mice = assay: Hippocampal glutamate concentration determination (microdialysis, LPS stimulus); format: in vivo, mouse; conditions: 20 mg/kg intraperitoneal simultaneously with 10 μg/2 μl LPS stimulus; FIG. 13
Procedure: A microdialysis catheter was indwelled stereotaxically (in place) into the hippocampus of C57BL/6J mice (8 weeks of age, female, n=5 to 7). After settlement for 48 hours, the determination of the hippocampal glutamate with time was started using high-speed liquid chromatography (HPLC, HITEC-500 GAD, made by Eicom Corp. A stimulus was given by administering 10 μg/2 μl of lipopolysaccharide (LPS) through said catheter, along with an intraperitoneal injection of 20 mg/kg body weight CBX or Compound B simultaneously with the LPS stimulus administration, for a pharmacological efficacy assessment. The hippocampal glutamate concentration was quantified as a % value relative to the average value thereof from 120 minutes to 60 minutes before the stimulus was given to each individual.

mice = format: in vivo; conditions: intraperitoneal injection of 200 and 1000 mg/kg body weight
LPS-activated microglia = assay: Inhibitory effect on glutamate production by activated microglia (glutamate in neuronal medium cultured with microglia conditioned medium); format: cell-based, mouse; conditions: for glutamate concentration in the neuron culture media: microglia cultured with 1 μg/ml LPS and compound at 1, 10, 100 μM for 24 hours
Procedure: (§1) Next, Compound A and Compound B were checked as to their inhibitory effect on glutamate production in activated microglia. That is, mouse primary microglia were isolated from primary mixed glial cell cultures, prepared from neonatal C57BL/6 mice brains by the “shaking off” method on the 14th culture day or later (Suzumura, A. et al J. Neuroimmunol. 15, 263-278 1987). Mouse cerebral cortex primary neuronal cells were prepared from the cerebral cortices of C57BL/6J mice at embryonic day 17, and were plated on polyethyleneimine-coated cover glasses, and were used at culture day 10-13 (Takeuchi, H. et al. J. Biol. Chem. 280, 10444-10454, 2005.)
(§2) Using the culture system of neuronal cells utilizing a microglia conditioned medium, the neuronal cell damage by activated microglia was analyzed with time by the following methods (Takeuchi, H. et al. J. Biol. Chem. 280, 10444-10454, 2005.) Namely, 1 μg/ml lipopolysaccharide (LPS) and Compound A, Compound B, and carbenoxolone (CBX) at each concentration thereof (1 μM, 10 μM and 100 μM as the final concentrations) were added to a microglia culture (about 5×10^4 cells/well, a neuronal culture medium, (made by Sumitomo Bakelite Co., Ltd)) followed by incubating under 100% humidity and 5% CO2 for 24 hours. For a control, except for not adding Compound A or Compound B, microglia were incubated in a similar manner (LPS).
Each of the activated microglia conditioned media, 500 μl, 24 hrs after the administration, was added to neuronal cells (5×10^4 cells/well) in a 24-well plate, and the neuronal cells were cultured at 37° C. under 100% humidity and 5% CO2. The non-activated microglia conditioned medium was also added to neuronal cells to serve as a control (NT). 24 hours after the start of culturing, the amounts of glutamate and neuronal cell death in the conditioned medium were analyzed.
Determination of glutamate was performed by colorimetry; and neuronal cell death was assessed by the dye-exclusion method with propidium iodide under a fluorescence microscope and the terminal deoxynucleotidyl transferase-mediated […] (TUNEL) staining.

[1] = test system: Mouse cerebral cortex primary neuronal cells; assay: Cell death of neuronal cells cultured with microglia-conditioned medium (propidium iodide, TUNEL); format: cell-based; conditions: microglia conditioned medium with LPS and compound at 1, 10, 100 μM; FIG. 6
Procedure: as §1
as §2, with “(LPS). […]” for “(LPS).”

[2] = test system: human superoxide dismutase 1 (SOD1) G93A mutant transgenic mouse; assay: Survival extension effect in an ALS model mouse; format: in vivo; conditions: 20 mg/kg intraperitoneal 3 times a week from 6-7 weeks of age; vs PBS, p<0.0002; FIG. 7
Procedure: The assessment of drug efficacy was conducted using, as an animal model of neurodegenerative diseases, the human superoxide dismutase 1 (SOD1) G93A mutant transgenic mouse, which is widely used as a model of amyotrophic lateral sclerosis (ALS). Said transgenic mice were procured from Jackson Laboratory, USA.
Starting at 6-7-weeks of age, which is considered to be an early ALS onset period, they were intraperitoneally administered with 20 mg/kg body weight of Compound B, which is a novel gap junction inhibitor, CBX, or the same volume of physiological saline (PBS group) 3 times a week. The survival analysis was performed using the Kaplan-Meier method.

[3] = test system: human superoxide dismutase 1 (SOD1) (G93A) mutant transgenic mouse; assay: Survival extension effect in an acute-onset ALS model mouse; format: in vivo; conditions: 20 mg/kg intraperitoneal 3 times a week from 7-8 weeks of age; vs PBS, p<0.0001; FIG. 8
Procedure: The assessment of drug efficacy at different Compound B concentrations was conducted using, as an animal model of neurodegenerative diseases, a human superoxide dismutase 1 (SOD1) (G93A) mutant transgenic mouse, which is widely used as an acute-onset model of amyotrophic lateral sclerosis (ALS).
Starting at 7-8-weeks of age, which is considered to be an early ALS onset period, they were intraperitoneally administered with 5, 10, and 20 mg/kg body weight of the novel gap junction inhibitor (Compound B) or the same volume of physiological saline (PBS group) 3 times a week. The survival analysis was performed using the Kaplan-Meier method.

[4] = test system: APP/PS1 mutant double transgenic mouse; assay: Novel object exploration test in Alzheimer's disease model mouse; format: in vivo; conditions: 10 and 20 mg/kg intraperitoneal 3 times a week; FIG. 10
Procedure: (§3) The assessment of drug efficacy of Compound B was conducted using, as an animal model of neurodegenerative diseases, the human amyloid precursor protein/human presenilin-1 (APP/PS1) mutant double transgenic mouse, which is widely used as an Alzheimer's disease model mouse.
(§4) Starting at 9 months of age, which is considered to be an intermediate onset period, they were intraperitoneally administered with 10 and 20 mg/kg body weight of Compound B or the same volume of physiological saline (PBS group) 3 times a week. The control group was a wild type mouse (G57BL/6J) of the same age. Behavioral analysis was performed using the following three types of behavior experiments.
(1) Novel object exploration test: After the mice were habituated for 3 days (10 minutes/day) in an acrylic experiment apparatus, they were subjected to training. The raining consisted of placing two different objects in the apparatus and they were allowed to freely explore for 10 minutes. 24 hours after the training, Retention was carried out. The Retention consisted of replacing one of the two objects which had been placed in the apparatus during the training with a novel object and allowing the mice to freely explore for 5 minutes. The times spent exploring (touching, sniffing behavior and the like) the two objects were determined respectively. […]

[5] = test system: APP/PS1 mutant double transgenic mouse; assay: Fear conditioned learning test in Alzheimer's disease model mouse; format: in vivo; conditions: FIG. 11
Procedure: as §3, §4
(2) Fear conditioned learning test: Associative learning was assessed using a fear conditioned learning test (Mouri et al., FASEB J. 21, 2135-2148, 2007; Nagai et al., FASEB J. 17, 50-52, and 2003). The mice were placed in a transparent acrylic cage with a stainless steel grid installed therein and were subjected to a 20 second tone stimulus (80 dB), and then further to an electric stimulus (0.6 mA). A set of this combination stimulus was repeated 4 times with 15 second intervals, thereby causing fear conditioning. A contextual dependency test and a tone stimulus dependency test were carried out 24 hours after the fear conditioning. For the former, mice were placed in the […] acrylic cage with a grid where the fear conditioning took place to determine their freezing behavior for two minutes under a context of giving no tone and no electric stimuli. For the latter, mice were placed in a black acrylic cage having wood chips on the floor thereof, to determine their freezing behavior for 1 minute when given a continuous tone stimulus. The results were expressed respectively in terms of a percentage (%) of the freezing behavior time relative to the total time for determination.

[6] = test system: APP/PS1 mutant double transgenic mouse; assay: Morris water maze test in Alzheimer's disease model mouse; format: in vivo; conditions: FIG. 12
Procedure: as §3, §4
(3) Morris water maze test: Spatial recognition memory was evaluated using the Morris water maze test (Mouri et al. and FASEB J. 21 2135-2148 2007; Miyamoto et al; J. Neurosci. 25, 1826-1835 2005). A 60 second trial was conducted 3 times a day to determine the swimming time (escape latency) and swimming distance (distance moved) from a different start position to a fixed platform. This was performed for seven days in row; on the eighth day, a probe test was performed with the platform removed. The Probe test involved dividing the water maze into 4 regions consisting of Target (Platform), Right, Opposite, and Left and determining the ratios of the regions in which they swam over 60 seconds. The items to be determined were determined using the SMART system (Panlab, Barcelona, Spain).

[7] = 10 and 20 mg/kg intraperitoneal 3 times a week

Question: With `CC1(C)[C@@H](OC(=O)CCC(=O)O)CC[C@]2(C)[C@H]3C(=O)C=C4[C@@H]5C[C@@](C)(C(=O)O)CC[C@]5(C)CC[C@@]4(C)[C@]3(C)CC[C@@H]12` [CBX, carbenoxolone, reference compound] as the molecule, how does the “inhibitory effect on the rise in hippocampal glutamate” value (C57BL/6J mice) read?
Answer: The value was “no inhibitory effect”.

Question: What about the “deaths after acute dosing” value (mice) of the same molecule?
Answer: Its value is “all mice among the CBX administered group died within 24 hours”.

Question: `CC1(C)[C@@H](OC(=O)c2cccnc2)CC[C@]2(C)[C@H]3C(=O)C=C4[C@@H]5C[C@@](C)(C(=O)O)CC[C@]5(C)CC[C@@]4(C)[C@]3(C)CC[C@@H]12` [Compound A] was tested. Which “glutamate concentration in the neuron culture media” value (LPS-activated microglia; FIG. 5) did it give?
Answer: Its value is “fell in accordance with the concentration of these compounds”.

Question: What about the “neuronal cell death (%)” value [1] of the same molecule?
Answer: The value was “inhibited in a concentration-dependent manner”.

Question: `C[n+]1cccc(C(=O)O[C@H]2CC[C@]3(C)[C@H]4C(=O)C=C5[C@@H]6C[C@@](C)(C(=O)O)CC[C@]6(C)CC[C@@]5(C)[C@]4(C)CC[C@H]3C2(C)C)c1` [Compound B] was tested. Which glutamate release inhibition (LPS-activated microglia; 100 μM, LPS-activated microglia, FIG. 5) did it give?
Answer: The glutamate release inhibition was “comparable to that of the non-stimulated microglia”.

Question: And the “inhibition of glutamate release in LPS-activated microglia, comparison of compounds” value (LPS-activated microglia; LPS-activated microglia)?
Answer: Its value is “notably more effective than Compound A”.

Question: What about the “glutamate concentration in the neuron culture media” value (LPS-activated microglia; FIG. 5) of the same molecule?
Answer: The value was “fell in accordance with the concentration of these compounds”.

Question: And the “neuronal cell death (%)” value [1]?
Answer: Its value is “inhibited in a concentration-dependent manner”.

Question: What about the “extending survival, on average” value [2] of the same molecule?
Answer: Its value is “about 14 days”.

Question: What about the “extending survival, on average” value [3] of the same molecule?
Answer: The value was “about 2 weeks”.

Question: What about the “novel object exploratory preference” value [4] of the same molecule?
Answer: The value was “significantly greater than the PBS administered group”.

Question: What about the “freezing behavior time, tone stimulus dependency test” value ([5]; 20 mg/kg administered group) of the same molecule?
Answer: Its value is “significant moderation effect”.

Question: What about the “freezing behavior time, contextual dependency test” value [5, 7] of the same molecule?
Answer: The value was “significantly moderated the observed reduction in freezing behavior time”.

Question: And the “freezing behavior time, tone stimulus dependency test” value [5, 7]?
Answer: The value was “dose-dependent increase in the freezing behavior time”.

Question: And the distance swum ([6]; 10 mg/kg, training day 1)?
Answer: Its distance swum is “about the same as that of the PBS administered group”.

Question: And the distance swum ([6]; 10 mg/kg, training day 5-7)?
Answer: The distance swum was “fell significantly”.

Question: And the distance swum ([6]; 20 mg/kg, training day 4-7)?
Answer: The distance swum was “significant reduction”.

Question: And the swimming time ([6]; 20 mg/kg, training day 4-7)?
Answer: The swimming time was “significant reduction”.

Question: What about the “swimming time in the target region (Probe test)” value ([6]; Compound B administered groups, day 8 probe test) of the same molecule?
Answer: The value was “significantly increased”.

Question: What about the “inhibitory effect on the rise in hippocampal glutamate” value (C57BL/6J mice) of the same molecule?
Answer: Its value is “significant inhibitory effect”.
